Data on six compounds can be found in patent publication US20150297741A1, “BIO-ORTHOGONAL DRUG ACTIVATION” (TAGWORKS PHARMACEUTICALS B.V., priority 2012, published 2015).

A short description of data set [1]: Stability of a TCO compound under various conditions (HPLC-MS/PDA and/or GC-MS). The data set is classed as physicochemical. The note with it: for half-life at 2.3 mM: read-out: Stability of TCO: t1/2. Here is the method: The TCO stock solution (10 μL 25 mM; 2.5*10^−7 mol) was added to a solution of the specific condition (100 μL). The mixture was stirred at the specific condition for a certain amount of time, and then the fate of the TCO compound was monitored by HPLC-MS/PDA analysis and/or GC-MS analysis, and an estimation of its stability was made.
(§1) Conditions: A) in acetonitrile with 5 equivalents of pyridine per TCO at 20° C.
B) in acetonitrile with 5 equivalents of DIPEA per TCO at 20° C. C) in acetonitrile with 5 equivalents of piperidine per TCO at 20° C. D) in acetonitrile with 5 equivalents of n-butylamine per TCO at 20° C. E) in acetonitrile with 5 equivalents of 2-mercaptoethanol per TCO at 20° C. F) in tetrahydrofuran with 5 equivalents of triphenylphosphine per TCO at 20° C. G) in acetonitrile with 5 equivalents of DCC per TCO at 20° C. H) in acetonitrile with 5 equivalents of PyBOP per TCO at 20° C. […] J) in chloroform at 20° C. […] L) in chloroform with 1 v % of trifluoroacetic acid at 20° C. M) in chloroform with 10 v % of trifluoroacetic acid at 20° C. N) in chloroform with 33 v % of trifluoroacetic acid at 20° C. Z) in 25% acetonitrile in water at 20° C.

A short description of data set [2]: Tetrazine-induced deprotection (TCO activation) under various conditions. Here is the method: In addition, the tetrazine-induced TCO activation was studied under the same conditions. […] In addition to amines, also hydroxy and carboxylic acids form stable conjugates with TCO and can subsequently be cleaved in a range of conditions.
The TCO stock solution (10 μL 25 mM in acetonitrile; 2.5*10^−7 mol) was added to a solution of the specific condition (100 μL). A solution of 3,6-dimethyl-1,2,4,5-tetrazine (8, 20 uL 25 mM in acetonitrile; 5.0*10^−7 mol) was added, and the mixture was stirred at the specific condition for a certain amount of time. The reaction was monitored by HPLC-MS/PDA analysis and/or GC-MS analysis, and the percentage of deprotection was estimated.
as §1
B) in acetonitrile with 5 equivalents of DIPEA per TCO at 20° C. C) in acetonitrile with 5 equivalents of piperidine per TCO at 20° C. D) in acetonitrile with 5 equivalents of n-butylamine per TCO at 20° C. E) in acetonitrile with 5 equivalents of 2-mercaptoethanol per TCO at 20° C. F) in tetrahydrofuran with 5 equivalents of triphenylphosphine per TCO at 20° C. G) in acetonitrile with 5 equivalents of DCC per TCO at 20° C. H) in acetonitrile with 5 equivalents of PyBOP per TCO at 20° C. I) in acetonitrile with 1 v % of formic acid at 20° C. J) in chloroform at 20° C. K) in chloroform with 1 v % of formic acid at 20° C. L) in chloroform with 1 v % of trifluoroacetic acid at 20° C. M) in chloroform with 10 v % of trifluoroacetic acid at 20° C. N) in chloroform with 33 v % of trifluoroacetic acid at 20° C. Z) in 25% acetonitrile in water at 20° C.

Data set [3] can be described thus: Tetrazine-induced doxorubicin release from Axial-TCO-1-Doxorubicin in PBS/MeCN (LCMS). Here is the method: PBS/MeCN (1 mL, 3/1), preheated at 37° C. and TCO-2-doxorubicin (10 μL of a 2.5 mM solution in DMSO, 1 eq.) were added to a preheated injection vial. Tetrazine (10 μL of a 25 mM solution in DMSO, 10 eq.) was added and the vial was vortexed. After incubation for 1 hour at 37° C., the vial was placed in LC-MS autosampler at 10° C. LC-MS analysis was performed using a 5% to 100% H2O/MeCN gradient over 11 minutes with a C18 reverse-phase column at 35° C. A control sample containing only TCO-2-doxorubicin (1 eq), as well as a sample containing only doxorubicin (1 eq.), was analyzed under the same conditions. All tetrazine containing samples were measured twice and the doxorubicin control sample was run after every three other samples during an overnight program. The peak area of released dox was divided by the peak area of TCO-2-doxorubicin or doxorubicin reference signals and multiplied by 100 to calculate the percentage of release. The calculated percentage of release was corrected when it was observed that the TCO-2-doxorubicin was not fully converted to inv-DA adduct(s). This was done by quantification of remaining dox-TCO, but full conversion was almost always observed. Peak areas (used for doxorubin quantification) were determined at A=470-500 nm where characteristic doxorubicin absorption takes place and peak integration was done by hand.
(§2) In a similar fashion as Example 3, the release of doxorubicin from TCO-1-doxorubucin as induced by tetrazines 1,8,9 in PBS/ACN and in serum was measured.

Data set [4] is described as follows: Tetrazine-induced doxorubicin release from Axial-TCO-1-Doxorubicin in serum (HPLC-MS/PDA). The note with it: 37° C. Also on record: species or system mouse. Here is the method: as §2
Serum experiments were conducted as follows:
TCO-1-doxorubucin (6.25×10^−8 mol) was dissolved in DMSO (0.050 mL), and PBS (0.475 mL) was added slowly in aliquots of 0.010 mL, followed by mouse serum (0.475 mL). […] Subsequently, cold MeCN (0.200 mL) was added, followed by centrifugation at 13400 rpm for 5 min. The supernatant was used for further analysis by HPLCMS/PDA analysis to determine the release of doxorubicin.

Where [5] appears, read: 0.1M HCOOH buffer, pH = 2.0 for 2 day, 20° C.
The mark [6] stands for this setting: 0.1M NH3 buffer, pH = 11 for 5 day, 20° C.
Setting [7] is: 0.1M NH4OAc buffer, pH = 7.0 for 5 day, 20° C.
Where [8] appears, read: 0.1M NH4OAc buffer, pH = 8.0 for 8 day, 20° C.
[9] abbreviates: 0.1M NH4OAc buffer, pH = 9.0 for 8 day, 20° C.
[10] abbreviates: 0.1M NH4OAc buffer, pH = 10.0 for 8 day, 20° C.
Where [11] appears, read: 10% MeCN in H2O at 70° C. for 5 day.
Setting [12] is: 10% MeCN in H2O for 5 day, 20° C.
Setting [13] is: with 5 eq. of DIPEA in MeCN for 16 h, 20° C.
Setting [14] is: with 5 eq. of HCOOH in MeCN for 16 h, 20° C.
Setting [15] is: with 5 eq. of PyBOP in MeCN for 16 h, 20° C.
[16] abbreviates: with 5 eq. of pyridine in MeCN for 16 h, 20° C.

Each structure is given as a SMILES string. Like-named read-outs stand apart in the source and are kept apart here.

With `COc1cc(COC(=O)NC2CC/C=C/CC[C@@H]2N)cc(OC)c1OC` (stereo partly shown), the “Stability of TCO” value in data set [1] (setting [5]), in data set [1] (setting [7]), in data set [1] (setting [8]), in data set [1] (setting [9]), in data set [1] (setting [10]) and in data set [1] (setting [12]) was “stable” each time. In addition, the “Stability of TCO: cyclization” value in data set [1] (setting [6]) and in data set [1] (setting [11]) was less than 5% throughout. Also, the “Deprotection (%)” value in data set [2] (setting [5]) is listed as 0%; in data set [2] (setting [6]), 87%; in data set [2] (setting [7]), 0%; in data set [2] (setting [8]), 0%; in data set [2] (setting [9]), 25%; in data set [2] (setting [10]) it was 81%. The “Deprotection (%)” value in data set [2] (setting [11]) stood at 50%; in data set [2] (setting [12]), 0%.
For the compound `N[C@H]1CC/C=C/CCC1NC(=O)Oc1ccccc1` (stereo partly shown), the half-life at 2.3 mM in data set [1] (0.1M NH4OAc buffer, pH = 7.0, 20° C.) amounted to 80 h; in data set [1] (0.1M NH4OAc buffer, pH = 8.0, 20° C.), 17 h; in data set [1] (0.1M NH4OAc buffer, pH = 9.0, 20° C.), 5.3 h. The “Stability of TCO: cyclization” value in data set [1] (setting [13]) is on record as 6.7%; in data set [1] (setting [14]), 1.9%; in data set [1] (setting [15]), 5.9%; in data set [1] (setting [16]), 2.6%. The “Deprotection (%)” value in data set [2] (setting [13]) turned out to be 98.8%; in data set [2] (setting [14]), 33.9%; in data set [2] (setting [15]) it was 24.4%; in data set [2] (setting [16]), 71.7%.
Turning to `NC1/C=C/CCCCC1NC(=O)Oc1ccccc1` (stereo not shown), the half-life at 2.3 mM in data set [1] (in PBS buffer, 20° C.) amounted to 65 h.
Same read-out and setting: the value for `NC1CCCC/C=C/C1NC(=O)Oc1ccccc1` (stereo not shown) was 29 h.
For the compound `COc1cccc2c1C(=O)c1c(O)c3c(c(O)c1C2=O)C[C@@](O)(C(=O)CO)C[C@@H]3O[C@H]1CC(NC(=O)O[C@H]2/C=C/CCCCC2)[C@H](O)C(C)O1` (stereo partly shown) [Axial-TCO-1-Doxorubicin], the “Doxorubicin release (%) from Axial-TCO-1-Doxorubicin without tetrazine” value is 0% in data set [3] (no tetrazine, 37° C., PBS (72 h), column PBS/MeCN (3/1)) and 0% in data set [4] (no tetrazine, serum (24 h)).
Regarding `Cc1nnc(C)nn1` [tetrazine 8, 3,6-dimethyl-1,2,4,5-tetrazine], the “Doxorubicin release (%) from Axial-TCO-1-Doxorubicin” value in data set [3] (10 equiv. tetrazine, 25% MeCN in PBS (PBS/MeCN 3/1), 37° C., LCMS at 4 h, n = 3) was 79 ± 3%; in data set [4] (10 equiv. tetrazine, 50% serum, LCMS at 4 h, n = 3) it was 75 ± 4%. Further, in data set [3] (PBS/ACN and serum), the “release of doxorubicin from TCO-1-doxorubucin, comparison of tetrazines 1, 8, 9” value is on record as “highest release”.
